Source: ChEMBL document CHEMBL1201862, “PubChem BioAssay data set” (2004)
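How tested: cells in 96-well plates exposed to compound for 48 hours at five concentrations. At the GI50, growth is halved.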 The source made the active and inactive calls. Cut-off read from the data, not from the text of the source: active = GI50 up to about 1.1 µM and inactive = higher.

What was measured:
Assay in all cases: NCI anticancer screen, dose series, 48 h
HOP-92 = tested on: HOP-92
NCI-H23 = tested on: NCI-H23
OVCAR-4 = tested on: OVCAR-4
MDA-N = tested on: MDA-N
NCI-H460 = tested on: NCI-H460
HCT-116 = tested on: HCT-116
OVCAR-5 = tested on: OVCAR-5
NCI-H226 = tested on: NCI-H226
HCC 2998 = tested on: HCC 2998
SN12C = tested on: SN12C
M14 = tested on: M14
A498 = tested on: A498
UACC-62 = tested on: UACC-62
SW-620 = tested on: SW-620
A549 = tested on: A549
SNB-75 = tested on: SNB-75
CCRF-CEM = tested on: CCRF-CEM
OVCAR-3 = tested on: OVCAR-3
Hs-578T = tested on: Hs-578T

Row | Compound | GI50 (HOP-92) | GI50 (NCI-H23) | GI50 (OVCAR-4) | GI50 (MDA-N) | GI50 (NCI-H460) | GI50 (HCT-116) | GI50 (OVCAR-5) | GI50 (NCI-H226) | GI50 (HCC 2998) | GI50 (SN12C) | GI50 (M14) | GI50 (A498) | GI50 (UACC-62) | GI50 (SW-620) | GI50 (A549) | GI50 (SNB-75) | GI50 (CCRF-CEM) | GI50 (OVCAR-3) | GI50 (Hs-578T)
1 | COc1ccc(NCn2nc(CCCCCCCCc3nn(CNc4ccc(OC)cc4)c(=S)o3)oc2=S)cc1 | > 100 µM (inactive) | > 100 µM (inactive) | > 100 µM (inactive) | > 100 µM (inactive) | > 100 µM (inactive) | 21 µM (inactive) | > 100 µM (inactive) | > 100 µM (inactive) | > 100 µM (inactive) | > 100 µM (inactive) | > 100 µM (inactive) | > 100 µM (inactive) | > 100 µM (inactive) | > 100 µM (inactive) | > 100 µM (inactive) | > 100 µM (inactive) | – | – | –
2 | CC(C)=NN/C(=N\c1ccc(Cl)cc1)NS(=O)(=O)c1cc(Cl)c(Oc2ccc([N+](=O)[O-])cc2Cl)c(Cl)c1 | 51.8 µM (inactive) | > 100 µM (inactive) | 67.3 µM (inactive) | > 100 µM (inactive) | > 100 µM (inactive) | > 100 µM (inactive) | > 100 µM (inactive) | > 100 µM (inactive) | – | > 100 µM (inactive) | 75.9 µM (inactive) | – | > 100 µM (inactive) | > 100 µM (inactive) | 76.7 µM (inactive) | – | 78.5 µM (inactive) | > 100 µM (inactive) | 81.7 µM (inactive)
3 | COC(=O)CCC1=CCC2(SC)C(=O)Nc3cccc1c32 (centres undefined) | > 100 µM (inactive) | > 100 µM (inactive) | > 100 µM (inactive) | – | > 100 µM (inactive) | > 100 µM (inactive) | > 100 µM (inactive) | > 100 µM (inactive) | > 100 µM (inactive) | > 100 µM (inactive) | > 100 µM (inactive) | – | > 100 µM (inactive) | > 100 µM (inactive) | > 100 µM (inactive) | > 100 µM (inactive) | > 100 µM (inactive) | > 100 µM (inactive) | > 100 µM (inactive)
4 | CC(C)[C@H](C)/C=C/[C@@H](C)C1CC[C@H]2[C@@]34C=C[C@]5(C[C@@H](O)CC[C@]5(C)[C@H]3CC[C@]12C)OO4 (some centres undefined) | 32.4 µM (inactive) | 27.3 µM (inactive) | 40.1 µM (inactive) | 35.1 µM (inactive) | 31.8 µM (inactive) | 19.3 µM (inactive) | > 100 µM (inactive) | 22.2 µM (inactive) | 21.9 µM (inactive) | 28.6 µM (inactive) | 40.7 µM (inactive) | 25.8 µM (inactive) | 17.1 µM (inactive) | 27.1 µM (inactive) | 42.7 µM (inactive) | 30.3 µM (inactive) | – | 89.5 µM (inactive) | –
5 | CCN(CC)c1ccc2cc(-c3nc(O)c4ccccc4n3)c(=N)oc2c1 | > 100 µM (inactive) | – | > 100 µM (inactive) | > 100 µM (inactive) | > 100 µM (inactive) | > 100 µM (inactive) | > 100 µM (inactive) | > 100 µM (inactive) | > 100 µM (inactive) | > 100 µM (inactive) | > 100 µM (inactive) | – | > 100 µM (inactive) | > 100 µM (inactive) | > 100 µM (inactive) | > 100 µM (inactive) | > 100 µM (inactive) | – | > 100 µM (inactive)
6 | COc1ccc(N[S+]([O-])c2c(C)cc(C)cc2C)cc1 (centres undefined) | – | > 100 µM (inactive) | 86.5 µM (inactive) | 93.1 µM (inactive) | 35.6 µM (inactive) | 14.4 µM (inactive) | > 100 µM (inactive) | 36.2 µM (inactive) | 19.5 µM (inactive) | > 100 µM (inactive) | 77.8 µM (inactive) | – | 33.7 µM (inactive) | 48.2 µM (inactive) | 26.4 µM (inactive) | – | > 100 µM (inactive) | 61.9 µM (inactive) | 34.4 µM (inactive)
7 | CO/C(=N\N=C\c1ccc(C(F)(F)F)cc1)c1ccncc1 | > 10 µM (inactive) | > 10 µM (inactive) | > 10 µM (inactive) | > 10 µM (inactive) | > 10 µM (inactive) | > 10 µM (inactive) | > 10 µM (inactive) | > 10 µM (inactive) | > 10 µM (inactive) | > 10 µM (inactive) | > 10 µM (inactive) | – | – | > 10 µM (inactive) | > 10 µM (inactive) | – | > 10 µM (inactive) | > 10 µM (inactive) | –
8 | CCCCCC[C@H]1CC(=O)C2CCCC[C@@]23CC[C@H](CCl)N13.CCCCCC[C@H]1CC(=O)C2CCCC[C@@]23C[C@H](Cl)CN13 (some centres undefined) | 24.2 µM (inactive) | 47.5 µM (inactive) | 40.2 µM (inactive) | – | 98.2 µM (inactive) | 51.9 µM (inactive) | > 100 µM (inactive) | – | > 100 µM (inactive) | 82 µM (inactive) | 29.2 µM (inactive) | > 100 µM (inactive) | 48.1 µM (inactive) | – | 37 µM (inactive) | 27.8 µM (inactive) | 33.2 µM (inactive) | 25.1 µM (inactive) | 8.53 µM (inactive)
9 | CN(C)/C=N/c1c2ccccc2nc2ccccc12 | 5.4 µM (inactive) | 3.31 µM (inactive) | 6.64 µM (inactive) | – | – | 3.57 µM (inactive) | 6.52 µM (inactive) | 1.75 µM (inactive) | – | 2.53 µM (inactive) | 5.37 µM (inactive) | 8 µM (inactive) | 2.45 µM (inactive) | – | 4.61 µM (inactive) | 3.74 µM (inactive) | 4.21 µM (inactive) | 3.05 µM (inactive) | 2.01 µM (inactive)
10 | Nc1nc(-c2ccco2)cc(-c2ccco2)n1 | – | > 100 µM (inactive) | > 100 µM (inactive) | – | > 100 µM (inactive) | > 100 µM (inactive) | > 100 µM (inactive) | 71.3 µM (inactive) | – | > 100 µM (inactive) | > 100 µM (inactive) | – | > 100 µM (inactive) | > 100 µM (inactive) | > 100 µM (inactive) | 64.1 µM (inactive) | > 100 µM (inactive) | > 100 µM (inactive) | –
11 | CCOP(=O)(CC(=O)C1CC1)OCC | – | > 100 µM (inactive) | > 100 µM (inactive) | > 100 µM (inactive) | > 100 µM (inactive) | > 100 µM (inactive) | > 100 µM (inactive) | > 100 µM (inactive) | > 100 µM (inactive) | > 100 µM (inactive) | > 100 µM (inactive) | – | > 100 µM (inactive) | > 100 µM (inactive) | > 100 µM (inactive) | > 100 µM (inactive) | > 100 µM (inactive) | – | > 100 µM (inactive)
12 | COc1cc(Nc2cnc3ccc(N)cc3n2)cc(OC)c1OC | 61.2 µM (inactive) | 98.6 µM (inactive) | > 100 µM (inactive) | – | 69.3 µM (inactive) | > 94.6 µM (inactive) | > 100 µM (inactive) | > 100 µM (inactive) | > 100 µM (inactive) | > 100 µM (inactive) | > 100 µM (inactive) | > 100 µM (inactive) | 69.3 µM (inactive) | > 100 µM (inactive) | > 100 µM (inactive) | 49.3 µM (inactive) | 19.8 µM (inactive) | 41.3 µM (inactive) | –
13 | c1ccc2c(c1)SCCCS2 | 22.4 µM (inactive) | > 100 µM (inactive) | > 100 µM (inactive) | > 100 µM (inactive) | > 100 µM (inactive) | > 100 µM (inactive) | > 100 µM (inactive) | – | > 100 µM (inactive) | > 100 µM (inactive) | > 100 µM (inactive) | – | > 100 µM (inactive) | > 100 µM (inactive) | > 100 µM (inactive) | > 100 µM (inactive) | > 100 µM (inactive) | > 100 µM (inactive) | –
14 | C/C(=C\COP(=O)(O)OP(=O)(O)O)CC/C=C(\C)CNc1ccccc1 | – | – | – | – | > 50 µM (inactive) | > 50 µM (inactive) | > 50 µM (inactive) | > 50 µM (inactive) | – | > 50 µM (inactive) | > 50 µM (inactive) | – | > 50 µM (inactive) | > 50 µM (inactive) | > 50 µM (inactive) | 27.5 µM (inactive) | 0.832 µM (active) | – | 26.4 µM (inactive)
15 | Cn1ncnc1CCc1ccccc1 | > 100 µM (inactive) | > 100 µM (inactive) | > 100 µM (inactive) | – | > 100 µM (inactive) | > 100 µM (inactive) | > 100 µM (inactive) | > 100 µM (inactive) | – | > 100 µM (inactive) | > 100 µM (inactive) | > 100 µM (inactive) | > 100 µM (inactive) | > 100 µM (inactive) | > 100 µM (inactive) | > 100 µM (inactive) | > 100 µM (inactive) | > 100 µM (inactive) | –
16 | CC(C)(C)c1ccccc1NS(=O)(=O)c1ccccc1 | – | > 100 µM (inactive) | 62.4 µM (inactive) | – | 92 µM (inactive) | 48 µM (inactive) | > 100 µM (inactive) | 21.9 µM (inactive) | > 100 µM (inactive) | 62.4 µM (inactive) | 96.2 µM (inactive) | > 100 µM (inactive) | > 100 µM (inactive) | > 100 µM (inactive) | 59.8 µM (inactive) | > 100 µM (inactive) | 62.1 µM (inactive) | 71.4 µM (inactive) | –
17 | COC(=O)[C@]12CCC(C)(C)C[C@H]1[C@H]1C(=O)C=C3[C@@]4(C)C=C(C#N)C(=O)C(C)(C)[C@@H]4CC[C@@]3(C)[C@]1(C)CC2 [BARDOXOLONE METHYL] | 0.0769 µM (active) | 0.0156 µM (active) | 0.162 µM (active) | – | 0.0205 µM (active) | 0.0131 µM (active) | 0.04 µM (active) | 0.0346 µM (active) | 0.0112 µM (active) | 0.0237 µM (active) | 0.0171 µM (active) | 0.046 µM (active) | 0.0145 µM (active) | 0.0219 µM (active) | 0.0294 µM (active) | 0.139 µM (active) | < 0.01 µM (active) | 0.0103 µM (active) | 0.0321 µM (active)
